Source: patent US20020098213A1, “USE OF ELLAGIC ACID AND ITS DERIVATIVES IN COSMETICS AND DERMATOLOGY” (priority 1997, published 2002)

What was measured:
[1] = test system: collagen VII in a culture of normal human keratinocytes; assay: ELISA of collagen VII in supernatants of normal human keratinocyte cultures; assay type: cell-based; settings: ellagic acid 0.5 μg/ml; for RODC for 72 h of incubation: reduced optical density corrected to 100 μg cellular proteins; for A for 72 h of incubation (activity on the proportion of collagen VII): relative to control culture
[2] = test system: normal human keratinocytes; assay: XTT viability test and microscopic observation of the cells; assay type: cell-based; settings: test concentration 0.5 μg per ml; plate treated in parallel
Method: The cells are inoculated in a 96-well culture plate at a rate of 25,000 NHK per well in SFMc. After incubation for 24 h, which is necessary for good adhesion of the cells, the medium is replaced with SFMc diluted to 2% to limit the proliferation of the keratinocytes during the test. The test concentration of ellagic acid is 0.5 microgram per ml of test medium, which is obtained immediately beforehand from a stock solution containing 0.5 mg of ellagic acid per ml of DMSO. The final concentration of DMSO in the test medium is therefore 0.1% V/Vfinal. This concentration is not toxic to the cells. The control consists of SFMc test medium diluted to 2%, to which 0.1% V/V of DMSO has been added. Six cultures are prepared for the test product and six for the control experiment.
A plate treated in parallel is used for the XTT viability test with the XTT kit from Boehringer, reference 146 50 15, in order to measure the mitochondrial dehydrogenase activity of the viable cells.

For `O=c1oc2c(O)c(O)cc3c(=O)oc4c(O)c(O)cc1c4c23` [Ellagic acid, 2,3,7,8-tetrahydroxy(1)-benzopyrano-pyrano (5,4,3-cde)(1)benzopyran-5,10-dione], the “RODC for 72 h of incubation” value ([1]; NHK 1106P1 (face-lift)) was 1.563 ± 0.240, the “A for 72 h of incubation (activity on the proportion of collagen VII)” value ([1]; NHK 1106P1 (face-lift)) was “+64%” and the “RODC for 72 h of incubation” value ([1]; NHK 1124P2 (face-lift)) was 1.098 ± 0.100. The “A for 72 h of incubation (activity on the proportion of collagen VII)” value ([1]; NHK 1124P2 (face-lift)) was “+42%”, the “proportion of collagen VII present in the culture media” value ([1]; both strains) was “large and significant increase” and the “viability (mitochondrial dehydrogenase activity of viable cells, XTT; microscopic observation)” value [2] was “No significant drop in viability”.
